Results taken from PubChem BioAssay (NCI).
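The compound was tested at five concentrations on cells cultured in 96-well plates, with a 48-hour exposure period. At the GI50, growth is halved. TGI marks complete inhibition of growth.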

How the values were obtained:
Test in all cases: NCI-60 cell line screen, 48 h
[1] = tested on: LOX IMVI melanoma
[2] = tested on: RPMI-8226 leukemia
[3] = tested on: SR leukemia
[4] = tested on: HCT-15 colon
[5] = tested on: 786-0 renal
[6] = tested on: CAKI-1 renal
[7] = tested on: UO-31 renal
[8] = tested on: HCC-2998 colon
[9] = tested on: SNB-19 CNS
[10] = tested on: UACC-257 melanoma

Compound	GI50 [1]	TGI [1]	GI50 [2]	TGI [2]	GI50 [3]	TGI [3]	GI50 [4]	TGI [4]	GI50 [5]	TGI [5]	GI50 [6]	TGI [6]	GI50 [7]	TGI [7]	GI50 [8]	TGI [8]	GI50 [9]	TGI [9]	TGI [10]	GI50 [10]
Nc1ncn([C@@H]2O[C@H](CO)[C@@H](O)[C@H]2O)c(=O)n1	0.292 µM	2.1 µM	0.669 µM	> 100 µM	3.5 µM	> 100 µM	1.6 µM	21.1 µM	0.687 µM	13.8 µM	0.275 µM	3.25 µM	1.1 µM	9.97 µM	0.636 µM	5.55 µM	4.1 µM	> 100 µM		
C=CCC1(c2ccc(OC)cc2)C=CC(=O)CC1 (configuration not stated)		> 100 µM				> 100 µM		> 100 µM		> 100 µM		> 100 µM		> 100 µM		> 100 µM		> 100 µM	> 100 µM	
COC(=O)/C(=N\NC(N)=S)C(C(=O)OC)C(=O)C(=O)Nc1ccc(C)cc1 (configuration not stated)		> 100 µM		> 100 µM		> 100 µM		> 100 µM		> 100 µM		> 100 µM		> 100 µM		> 100 µM		> 100 µM	> 100 µM	
Cc1cc2c(=O)c3ccccc3[nH]c2c(C(N)=O)c1C		> 100 µM		> 100 µM				> 100 µM		> 100 µM		> 100 µM		> 100 µM				> 100 µM	> 100 µM	
Cc1ccccc1C(=O)c1cc(O)ccc1O				> 100 µM		> 100 µM		> 100 µM		> 100 µM		> 100 µM		> 100 µM		> 100 µM		> 100 µM	> 100 µM	
COc1cc(N(CCC#N)CCC#N)ccc1/C(N=Nc1ccc(Cl)cc1)=N/NC(=O)c1cc(Br)ccc1O	49.3 µg/mL	> 150 µg/mL	102 µg/mL	> 150 µg/mL	96.3 µg/mL	> 150 µg/mL	32.7 µg/mL	66.4 µg/mL	77.1 µg/mL	> 150 µg/mL	51.2 µg/mL	> 150 µg/mL	86.6 µg/mL	> 150 µg/mL	33.8 µg/mL	81.8 µg/mL	> 150 µg/mL	> 150 µg/mL	> 150 µg/mL	> 150 µg/mL
N#CNC(=NCc1ccccc1)N(Cc1ccccc1)Cc1ccccc1		> 31.6 µM		> 31.6 µM		> 72.9 µM		> 31.6 µM		> 31.6 µM		89.6 µM		29.3 µM		> 100 µM		> 100 µM		
CN(C)CCC(/C=C/c1ccccc1)=N\Nc1ccccc1		0.454 µM		8.52 µM				2.43 µM		11.1 µM				2.8 µM				14.1 µM	9.76 µM	
CCOC(=O)c1nc2c(OC)nn(O)cc-2c1[N+](=O)[O-]		30 µM		56.2 µM				36.2 µM		30.7 µM				42.4 µM				62.8 µM	33.5 µM	
COc1c(O)c2c(=O)cc3c4c5c(cc(=O)c6c(O)c(OC)c(CC(C)O)c(c(c1CC(C)O)c24)c65)OCO3 (configuration not stated)		2.28 µM		12 µM		9.41 µM		4.13 µM		11.1 µM		24.3 µM		5.45 µM				7.53 µM	2.78 µM	
COc1ccc2c(c1OCC(=O)O)C(=O)C(CCC(=O)O)CC2 (configuration not stated)		> 100 µM		> 100 µM				> 100 µM		> 100 µM		> 100 µM				> 100 µM		> 100 µM	> 100 µM	
COC(=O)/C(C#N)=C1\N=NNN1c1ccc(OC)cc1		> 100 µM		> 100 µM				> 100 µM		> 100 µM		> 100 µM		> 100 µM		> 100 µM		> 100 µM	> 100 µM	
CCCCCCCCCCCCCCCC(=O)OCCOCCOCCOCc1ccccc1		> 100 µM								> 100 µM		> 100 µM						> 100 µM	> 100 µM	
O=C1CCC2(c3ccc(Cl)cc3)Nc3cc(Cl)ccc3N12 (configuration not stated)		24.5 µM		> 100 µM		> 100 µM		25.3 µM		21.8 µM				29.2 µM				42.6 µM	28.7 µM	
COC1C(OC(=S)Nc2ccccc2)c2ccccc2N1C(C)=O (configuration not stated)				> 100 µM		> 100 µM		> 100 µM		> 100 µM		> 100 µM		> 100 µM		> 100 µM		> 100 µM	> 100 µM	
Cc1nc(Nc2ccc(Cl)cc2)sc1C(=O)NNC(=S)NN		29.5 µM		79.5 µM				45.5 µM		30.2 µM		44.8 µM		30.2 µM		28.8 µM		34.8 µM	27.3 µM	
O=C(Nc1cccc(Cl)c1)C(=O)C(C(=O)c1ccc2ccccc2c1)C1OC(=O)c2ccccc21 (configuration not stated)		44.5 µM		44 µM						22.9 µM		67.6 µM		29.9 µM		21.8 µM		28 µM	55.5 µM	
C/C(N=NC(=S)N1CC2CCC(CC2)C1)=C1\C=CC=CN1O		> 50.7 µM		> 39.2 µM				> 100 µM		> 100 µM		> 100 µM		43 µM		> 100 µM		> 82.5 µM	35.2 µM	
C#CC1/C(=C\C(=O)OC)CCCC1O (configuration not stated)				> 100 µM		> 100 µM		> 100 µM		> 100 µM		> 100 µM		> 100 µM		> 100 µM		> 100 µM	> 100 µM	
c1ccc2c(OCCSCCCCCCCCCCSCCOc3cccc4ccccc34)cccc2c1		> 100 µM		> 100 µM				> 100 µM		> 100 µM		> 100 µM		> 100 µM		> 100 µM		> 100 µM	> 100 µM	

Compound	GI50 [1]	TGI [1]	GI50 [2]	TGI [2]	GI50 [3]	TGI [3]	GI50 [4]	TGI [4]	GI50 [5]	TGI [5]	GI50 [6]	TGI [6]	GI50 [7]	TGI [7]	GI50 [8]	TGI [8]	GI50 [9]	TGI [9]	TGI [10]	GI50 [10]
CCC(C)(C)c1ccc(OCCCCNC(=O)c2ccc3ccccc3c2O)c(C(C)(C)CC)c1						> 100 µM		28.5 µM		93.5 µM		> 100 µM		> 100 µM		> 100 µM		> 100 µM	> 100 µM	
COc1ccc(OCC(=O)O)c2c1CCCC2=O		> 100 µM		> 100 µM		> 100 µM		> 100 µM		> 100 µM				> 100 µM		> 100 µM		> 100 µM	> 100 µM	
COc1cnc2c(c1)C(=O)c1c-2n(CCCNC2=NCCS2)c(=O)c2cc([N+](=O)[O-])ccc12							1.17 µM	2.66 µM	0.0235 µM	0.0925 µM	< 0.01 µM	1.47 µM	< 0.01 µM	1.19 µM	1.03 µM	2.45 µM			3.28 µM	0.575 µM
On1c(-c2ccccc2)c(-c2ccccc2N2CCCC2)c2ccccc21		> 100 µM		> 100 µM		> 100 µM		> 100 µM		> 100 µM		> 100 µM				> 100 µM		> 100 µM	> 100 µM	
O=C(OC1CCC(=C2SCCCS2)[C@H]1C1SCCCS1)c1ccccc1 (some centres not stated)		> 100 µM		> 100 µM				> 100 µM		> 100 µM				> 100 µM		> 100 µM		> 100 µM	> 100 µM	
Cc1cc(N[C@@H]2CCC[C@H](Nc3ccnc4cc(Cl)ccc34)C2)nc(N2CCCCCC2)n1	1.43 µM	2.96 µM	1.64 µM	4.71 µM	0.228 µM	0.847 µM	1.1 µM	2.62 µM	1.47 µM	2.9 µM			1.13 µM	2.4 µM	1.72 µM	3.29 µM	2.56 µM	8.08 µM	4.19 µM	2.35 µM
COc1ccc(-c2nnc3n(C)c(=O)c4ccccc4n23)cc1N	3.01 µM	> 100 µM	3.88 µM	> 100 µM	0.0346 µM	> 100 µM	0.0498 µM	> 100 µM	3.72 µM	> 100 µM	1.95 µM	> 100 µM	4.96 µM	> 100 µM	5.29 µM	> 100 µM	3.65 µM	> 100 µM		
Cc1ccc2nc(/C(=C/c3ccc(/C=C(\NC(=O)c4ccccc4)c4nc5ccc(C)cc5[nH]4)c(C)c3)NC(=O)c3ccccc3)[nH]c2c1				80.9 µM		> 100 µM		> 100 µM		60.4 µM		91.3 µM		30.8 µM				> 100 µM		
O=C(/C(=C/c1ccc(Cl)cc1)c1ccccc1)c1ccccc1		29 µM		45.4 µM		45.3 µM		30.6 µM		56.4 µM				> 100 µM		31.2 µM			29 µM	
CN1C(=O)c2ccccc2NC(=O)C12O[C@@H]2c1ccccc1 (some centres not stated)		> 100 µM		> 100 µM		> 100 µM				> 100 µM		> 100 µM		> 100 µM		> 100 µM			> 100 µM	
CC1(C)COC(c2cccc3c2C(=O)c2cccc(Cl)c2-3)=N1		> 100 µM		> 100 µM				> 100 µM		> 100 µM		> 100 µM		> 100 µM		> 100 µM		> 100 µM	> 100 µM	
CCOC(=O)c1ccc(/C(C)=N/NC(N)=S)cc1		> 100 µM		> 100 µM				> 100 µM		> 100 µM						> 100 µM		> 100 µM		
O=C(Nc1cccc(C(F)(F)F)c1)c1ccc(NC2=C(Cl)C(=O)N(Cc3ccc(Cl)cc3Cl)C2=O)cc1	1.63 µM	3.44 µM	2.29 µM	5.08 µM	1.83 µM	3.93 µM	2.31 µM	5.66 µM	3.96 µM	14.3 µM	16.8 µM	34.6 µM					22.8 µM	> 100 µM	42.2 µM	15.9 µM
COc1cc(C(=O)N2CCN(C(=O)c3cc(OC)c(OC)c(OC)c3)C2=S)cc(OC)c1OC	15.4 µM	30.7 µM		26.1 µM			20.2 µM	47.4 µM	11.4 µM	26.8 µM	12.3 µM	24.7 µM		12.8 µM	19 µM	40 µM	18.5 µM	38.1 µM	43.9 µM	21.7 µM
NC(N)=NCCCC(=O)O		> 100 µM		> 100 µM		> 100 µM		> 100 µM		> 100 µM		> 100 µM		> 100 µM				> 100 µM		
CC1(C)OC2C(CO[Si](C)(C)C(C)(C)C)OC(n3c(I)c(C#C[Si](C)(C)C)c(=O)[nH]c3=O)C2O1 (configuration not stated)	3.01 µM	11.1 µM	2.4 µM	8.6 µM	1.42 µM	4.3 µM	2.39 µM	15.4 µM	13.1 µM	26.8 µM			2.63 µM	10.4 µM	4.52 µM	17.7 µM	> 100 µM	> 100 µM	30.1 µM	13.3 µM
CCOc1ccc(/C=C2\N=C(c3ccc([N+](=O)[O-])cc3)OC2=O)cc1		> 100 µM		> 100 µM		> 100 µM		> 100 µM		> 100 µM		> 100 µM				> 100 µM		> 100 µM	> 100 µM	
CC(C)(/C=C(\C#N)C(=O)N1CCC[C@@H](n2nc(-c3ccc(Oc4ccccc4)cc3F)c3c(N)ncnc32)C1)N1CCN(C2COC2)CC1	3.37 µM	15.2 µM	4.41 µM	33.1 µM			6.11 µM	21 µM	4.12 µM	18.9 µM	6.39 µM	18.8 µM	2.82 µM	10.6 µM	15.4 µM	31.5 µM	8.09 µM	20.6 µM	20.4 µM	5.58 µM
CCN(CC)CCNc1nc(N)c(C#N)c(C#N)c1C#N		> 10 µM		> 10 µM				> 10 µM		> 10 µM		> 10 µM		> 10 µM		> 10 µM		> 10 µM	> 10 µM	
CC(C)(C)c1cc(C(P(=O)(O)O)P(=O)(O)O)cc(C(C)(C)C)c1O		> 100 µM		> 100 µM				> 100 µM		> 100 µM		> 100 µM		> 100 µM		> 100 µM		> 100 µM	> 100 µM	
